Data on one compound can be found in patent EP4759148A1, “ADJUSTMENT OF CIRCADIAN RHYTHM” (MEIJI CO., LTD, priority 2023, dated 2025).

The subject of test [1] is per2 reporter cells. Nature of the test: circadian rhythm assay (luciferase reporter assay) using per2 reporter cells. It is filed as cell-based, human. Conditions: 5 mM fumaric acid. The method, then: Referring to the "Cell-based circadian assays" described in the article by H. Oike et al. (NPL 1), a circadian rhythm assay (luciferase reporter assay) using per2 reporter cells was performed to evaluate the action of fumaric acid on circadian rhythms.
U-2OS cells were transfected with a vector prepared by incorporating the per2 promoter region into a NanoLuc (registered trademark) luciferase vector by using transfection reagent 1 according to a standard method. After about 24 hours, the medium was replaced, and dexamethasone was added at a final concentration of 100 nM to synchronize the cells. After two hours, 1% substrate (Endurazine) was added, and the luminescence intensity of luciferase was measured every 30 minutes using a plate reader equipped with CO2 control and temperature control.
After 25 days, formed colonies were collected and seeded in a 96-well plate (1 × 10^3 cells/well). After three days, the luminescence intensity of luciferase was measured every 60 minutes using a plate reader with CO^2 control and temperature control, in the same manner as described above.
Subsequently, cell lines with minimal variation in circadian rhythm cycle and stable periodicity were selected. These selected cell lines, referred to as "per2 reporter cells" were used in the following experiments.
The prepared per2 reporter cells were seeded in a 96-well plate at a density of 5 × 10^3 cells/well. The medium used was high-glucose medium 1 supplemented with 10% fetal bovine serum (FBS), 1% penicillin-streptomycin, and hygromycin, and the cells were cultured at 37°C under 5% CO2 conditions.
After two days from culture, 100 nM dexamethasone was added, and the cells were treated for 2 hours, followed by adding a 1% substrate (Endurazine). Subsequently, the luminescence intensity of luciferase was measured every 12 minutes. For the measurement, high-glucose medium 2 supplemented with 5% FBS and 1% penicillin-streptomycin was used.
Subsequently, fumaric acid was added to the measurement medium to achieve a final concentration of 5 mM, and the luminescence intensity of luciferase was measured over time using a long-term real-time luminescence measurement system for cultured cells (WSL-1565, Kronos HT) to evaluate changes in circadian rhythm. For a control, the luminescence intensity of luciferase in per2 reporter cells cultured in measurement medium without fumaric acid was measured over time in the same manner.
In the luminescence intensity rhythms, valleys were represented by T and peaks by P, and they were labeled as P1, T1, P2, and T2 in order of appearance. Since P1 was unstable in rhythm, the circadian rhythm of per2 reporter cells was evaluated based on the phases of the valleys (T1 and T2) and peak (P2) after T1.
Background: A reporter such as luciferase makes a cellular process visible.

In test [2] the test system is GPR41 gene. Nature of the test: induction of GPR41 gene expression in Caco-2 cells (real-time PCR). It is filed as cell-based, human. Conditions: 5 mM fumaric acid, 60 minutes, differentiated Caco-2 cells; Fig. 2. The method, then:
Caco-2 cells were seeded in a 24-well plate at 2 × 10^5 cells/well. After 3 weeks of differentiation induction, 5 mM fumaric acid was added, and cells were collected 60 minutes later. RNA was extracted, and GPR41 gene expression levels were measured by real-time PCR.
For orientation: Real-time PCR tracks product formation cycle by cycle.

Setting [3] is: fumaric acid-added cells versus control.

Turning to `O=C(O)/C=C/C(=O)O` [Fumaric Acid, fumaric acid], in test [1] (calculated from the phase difference between T1 and T2, control 29.6), the “circadian rhythm cycle, T2-T1” value is 26.4 h. In addition, the “phase of circadian rhythm, T1” value in test [1] (first valley (T1) of luciferase luminescence rhythm, U-2OS per2 reporter cells, control 22.4) was found to be 22.2 h. In addition, in test [1] (setting [3]), the “Difference in Cycle, T2-T1” value was -3.2 h; the “Difference in Phase, P2” value was -0.6 h; the “Difference in Phase, T1” value was -0.2 h; the “Difference in Phase, T2” value is -3.4 h. For the same compound, in test [1] (peak P2 of luciferase luminescence rhythm, control 34.8), the “phase of circadian rhythm, P2” value worked out at 34.2 h. The “phase of circadian rhythm, T2” value in test [1] (second valley (T2) of luciferase luminescence rhythm, control 52.0) is 48.6 h. Further, in test [2], the “expression level of the GPR41 gene” value is given as “increased”.
